Values quoted from earlier work in patent US10610707B2, “Oral care product for sensitive enamel care” (Colgate-Palmolive Company, priority 2010, dated 2020).

Settings: pH below which the compound dissolves, consuming acid

Row | SMILES | pH
1 | [O]=[Zn] [ZnO, Zinc oxide] | approximately 6.95
2 | O=C([O-])[O-].[Ca+2] [calcium carbonate] | approximately 8.75
